Reference: patent publication US8017400B2 (priority 2005, dated 2011)
Values joined by “and” are separate entries in the source; they are usually repeats but may differ in a detail not shown here. Equal values may be shown once. Read-outs that look alike come from different tables or passages of the source.

Tests used:
G95A mutant ALS [1] = molecular target: T1, G95A mutant ALS (Oryza sativa subsp. japonica, UniProt Q6K2E8, G95A); test: Inhibition of expressed GST fusion G95A mutant ALS activity by herbicides; format: biochemical, rice
T1 construct: made in house; host or cells: Escherichia coli (pGEX-2T)
Procedure: (§1) The Escherichia coli transformed with pGEX-2T having a G95A mutant ALS gene prepared in Example 6 and the same transformed with pGEX-2T (see WO02/44385A1) having a wild-type ALS gene were each shake-cultured (preculture) in 2 ml of LB liquid medium containing ampicillin at 27° C. They were each cultured in 250 ml of LB liquid medium containing ampicillin using 1 ml of the preculture solution. After overnight culture, 1 mM IPTG was added and they were further cultured for 3 to 4 hours. Thus, the expression of the GST fusion protein was induced. In addition, microbial bodies were washed with an ALS extraction buffer (potassium phosphate buffer (pH 7.5) containing 30% glycerol and 0.5 mM MgCl2) and then stored at −80° C.
(§2) Preparation and purification of ALS from Escherichia coli were performed by the following method. First, a pellet of the Escherichia coli stored at −80° C. was suspended in an ALS extraction buffer. (2.5 ml of the ALS extraction buffer was added to the pellet obtained from 50 ml of the culture solution.) The suspension was subjected to ultrasonication (Heat Systems-Ultrasonics, Sonicator W-225R, micro chip, output control 8, intervals of approximately 1 second, and twice every 40 seconds), and then centrifuged at 15000×g and 4° C. for 20 minutes, thereby obtaining the supernatant as a crude enzyme solution. Therefore, a crude enzyme solution of the GST fusion G95A mutant ALS protein and a crude enzyme solution of the GST fusion wild-type ALS protein were prepared.
(§3) A reaction solution to be used for the reaction for activity determination was prepared by mixing GST fusion ALS to be subjected to activity determination with a solution comprising 20 mM sodium pyruvate, 0.5 mM thiamine pyrophosphate, 0.5 mM MgCl2, 10 μM flavin adenine dinucleotide, 10 mM valine (added for the inhibition of activity of ALS derived from Escherichia coli), and 20 mM potassium phosphate buffer (pH 7.5). 0.5 ml of the reaction solution was used. The reaction was performed at 37° C. for 30 minutes after addition of GST fusion ALS to be subjected to activity determination. The reaction was stopped by the addition of 0.05 ml of 6 N sulfuric acid. After the completion of the reaction, the reaction solution was subjected to incubation at 37° C. for 60 minutes, so that acetolactic acid contained in the reaction solution was converted into acetoin. Subsequently, to quantify acetoin contained in the reaction solution, 0.05 ml of 0.5% (w/v) creatine and 0.05 ml of 5% (w/v) α-naphthol dissolved in 2.5 N sodium hydroxide were added, followed by 10 minutes of incubation at 37° C. Acetoin was then quantified by color comparison of the absorbance at 525 nm of the reaction solution, thereby evaluating ALS activity. The value at reaction time 0 (hours) was used as a control value. When the herbicide inhibition activity was examined, aqueous solutions of bispyribac-sodium and pyrithiobac-sodium were each prepared at a 100-fold concentration and then added to the reaction solution. In the case of pyriminobac, chlorsulfuron, bensulfuron-methyl, imazaquin, and imazapyr having low water solubility, an acetone solution was prepared for each thereof at a 100-fold concentrations and then added to the reaction solution.
(§4) The inhibition activity of various ALS inhibitors against the thus expressed G95A mutant ALS was examined.

G95A mutant ALS [2] = test: as above; format: biochemical, rice; details: 50% inhibitory concentration against G95A mutant ALS to that against wild-type ALS
Procedure: as §1, §2, §3, §4

[3] = molecular target: T2, wild-type ALS (GST fusion wild-type ALS) (Oryza sativa subsp. japonica, UniProt Q6K2E8); test: Inhibition of expressed GST fusion wild-type ALS activity by herbicides; format: biochemical, rice
T2 construct: made in house; host or cells: Escherichia coli (pGEX-2T)
Procedure: as §1, §2, §3
The 50% inhibitory concentration of each herbicide against G95A mutant ALS was compared with the 50% inhibitory concentration of the herbicide against wild-type ALS (GST fusion wild-type ALS), so that the herbicide resistance ratio (RS ratio) of the 50% inhibitory concentration against G95A mutant ALS to that against wild-type ALS was calculated. The RS ratios in the cases of bispyribac-sodium, pyrithiobac-sodium, and pyriminobac were 16,000:1 or more, 9, 100:1 or more, and 13,000:1 or more, respectively. In contrast, the RS ratios in the cases of chlorsulfuron, bensulfuron-methyl, imazaquin, and imazapyr were 0.19:1, 40:1, 0.82:1, and 4.9:1, respectively. […]

[4] = system: clone plants of the G95A-1 line and the G95A-2 line; test: Bispyribac-sodium resistance test on rooting medium, G95A lines; format: in vivo, rice; details: G95A-1 line at 1, 5, 10, 20 μM, G95A-2 line at 5 μM; observed 1 and 2 weeks after transplantation
Procedure: (§5) The two lines of plants selected by the above method were designated the G95A-1 line and the G95A-2 line. Since they were albino plants, they were cultured on MS medium and then multiplied by division. To test the degree of resistance to bispyribac-sodium, clone plants divided from the G95A-1 line were transplanted on rooting media (Table 3) containing 0 μM, 1 μM, 5 μM, 10 μM, or 20 μM bispyribac-sodium (FIG. 3A: on the left in each Petri dish, observed as white because they were albino). Clone plants of the G95A-2 line (the number of these clone plants is a few) were tested using 5 μM bispyribac-sodium alone. Plants of wild-type Taichung 65 in 2 weeks after seeding were used as members of a control group (FIG. 3, on the right side in each Petri dish). Plant in 1 week (FIG. 3B) after transplantation and plant in 2 weeks (FIG. 3C) after transplantation were observed.

[5] = system: plants of wild-type Taichung 65; test: Bispyribac-sodium resistance test on rooting medium, wild-type control; format: in vivo, rice; details: wild-type Taichung 65, 2 weeks after seeding; observed 1 and 2 weeks after transplantation
Procedure: as §5

[6] = 50% inhibitory concentration (μM) G95A mutant, G95A mutant ALS (Table 5)
[7] = 50% inhibitory concentration, Average, G95A mutant ALS, average of determinations (Table 4)
[8] = 50% inhibitory concentration, G95A mutant ALS, single determinations (First to Sixth)
[9] = read-out: inhibition % at 100 μM, Average, G95A mutant ALS, average of determinations
[10] = read-out: inhibition % at 100 μM, G95A mutant ALS, single determinations (First to Third)
[11] = read-out: inhibition activity at 100 μM, G95A mutant ALS

T2 sequence (Q6K2E8 44-644): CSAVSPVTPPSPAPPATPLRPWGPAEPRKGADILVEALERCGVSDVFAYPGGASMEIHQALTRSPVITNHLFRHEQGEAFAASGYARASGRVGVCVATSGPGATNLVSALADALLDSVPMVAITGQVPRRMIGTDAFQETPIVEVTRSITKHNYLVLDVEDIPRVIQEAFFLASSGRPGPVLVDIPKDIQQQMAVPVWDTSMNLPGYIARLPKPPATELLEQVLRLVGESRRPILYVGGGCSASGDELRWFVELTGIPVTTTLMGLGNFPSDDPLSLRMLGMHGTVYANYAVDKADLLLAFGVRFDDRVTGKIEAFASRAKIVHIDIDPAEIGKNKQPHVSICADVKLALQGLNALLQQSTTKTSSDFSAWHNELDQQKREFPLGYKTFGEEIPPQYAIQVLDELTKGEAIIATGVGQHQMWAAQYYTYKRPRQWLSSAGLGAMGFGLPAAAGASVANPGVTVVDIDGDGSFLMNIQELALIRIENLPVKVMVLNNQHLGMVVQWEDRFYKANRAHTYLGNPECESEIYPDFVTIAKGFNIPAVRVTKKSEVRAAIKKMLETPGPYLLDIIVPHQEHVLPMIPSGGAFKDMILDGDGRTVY
T1 sequence (Q6K2E8 44-644 G95A): as the sequence (Q6K2E8 44-644) above, with G52A counted along it

SMILES	IC50 (G95A mutant ALS [1]; [6]) [µM]	IC50 (G95A mutant ALS [1]; [7]) [µM]	IC50 (G95A mutant ALS [1]; [8])	inhibition activity against G95A mutant ALS (in words) (G95A mutant ALS [1]; G95A mutant ALS)	Resistance ratio (RS ratio) (G95A mutant ALS [2])	IC50 [3] [nM]	inhibition % at 100 μM (G95A mutant ALS [1]; G95A mutant ALS, single determinations (First to Third), listed as PS)	inhibition at 100 µM (G95A mutant ALS [1]; [9]) [%]	inhibition at 100 µM (G95A mutant ALS [1]; [10]) [%]	inhibition at 100 µM (G95A mutant ALS [1]; [11]) [%]	inhibition % at 100 μM (G95A mutant ALS [1]; G95A mutant ALS, single determinations (First to Third), listed as PM)	Resistance ratio (RS ratio) (G95A mutant ALS [2]; listed as pyriminobac)	inhibition % at 100 μM (G95A mutant ALS [1]; G95A mutant ALS, single determinations (First to Third), listed as BS)	Resistance ratio (RS ratio) (G95A mutant ALS [2]; listed as bispyribac-sodium)	resistance / rooting on bispyribac-sodium-containing rooting medium [4]	effect on plants on bispyribac-sodium-containing rooting medium [5]
COC(=O)c1ccccc1CS(=O)(=O)NC(=O)Nc1nc(OC)cc(OC)n1 [Bensulfuron-methyl, bensulfuron-methyl]	0.28	0.278	0.268 µM and 0.294 µM and 0.271 µM	exerted inhibition activity	40	7										
COc1cc(OC)nc(Sc2cccc(Cl)c2C(=O)[O-])n1.[Na+] [Pyrithiobac-sodium, pyrithiobac-sodium]	> 100				>9100	11	12.8% and 18.1%	14.3	12.1	≤ 50						
CON=C(C)c1cccc(Oc2nc(OC)cc(OC)n2)c1C(=O)O (mixture of isomers) [Pyriminobac, pyriminobac]	> 100				>13000	8		25.1	22.9	≤ 50	23.3% and 29.2%	≥ 13,000				
CC(C)C1(C)N=C(c2nc3ccccc3cc2C(=O)O)NC1=O (stereo not shown) [Imazaquin, imazaquin]	1.8	1.8	1.65 µM and 1.89 µM and 1.85 µM	exerted inhibition activity	0.82	2200										
COc1cc(OC)nc(Oc2cccc(Oc3nc(OC)cc(OC)n3)c2C(=O)[O-])n1.[Na+] [Bispyribac-sodium, bispyribac-sodium]	> 100				>16000	6.3		17.7	17.9	≤ 50			16.8% and 18.4%	≥ 16,000	exerted resistance, with new rooting observed	all the wild-type plants of the control group withered
COc1nc(C)nc(NC(=O)NS(=O)(=O)c2ccccc2Cl)n1 [Chlorsulfuron, chlorsulfuron]	0.0025	0.0025	0.0019 µM and 0.0023 µM and 0.003 µM and 0.0027 µM and 0.0028 µM and 0.0021 µM	strong	0.19	13										
CC(C)C1(C)N=C(c2ncccc2C(=O)O)NC1=O (stereo not shown) [Imazapyr, imazapyr]	47	46.8	46 µM and 44.6 µM and 49.7 µM	exerted inhibition activity	4.9	9600										
